Series [1] can be described thus: Trans-scleral diffusion in 2 chamber perfusion apparatus (HPLC readout). It is filed as in vitro ADME, human. The text has this: Scleral tissue was obtained from 23 human donor eyes (Georgia Eye Bank, Atlanta) and was stored in moist chambers for 2-6 days post-mortem. The mean age at time of death (±SE) for the donor tissue used in this study was 52.4±4.4 years. Scleral tissue was dissected from the superotemporal quadrant of each eye to minimize associated structures that can modify scleral permeability such as vortex veins, posterior ciliary arteries, and anterior ciliary vessels. Uveal tissue and episclera were carefully removed using a cotton-tip applicator. The sclera was mounted horizontally in a 2 chamber acrylic perfusion apparatus (FIG. 1). The uveal surface was apposed to the lower flow-through hemi-chamber (volume 500 μL) containing balanced salt solution (BSS, Alcon laboratories, Ft. Worth, Tex.). The test solution was applied to the episcleral surface. Since CAI has a 423 Da molecular weight and the molecule is hydrophobic with a solubility of 1-10 μM in water, three different test solutions that contained carboxyamido-triazole were evaluated: CAI in 20% DMSO (80% BSS vol/vol) at a concentration (mean±SE) of 15.2±3.0 μM (solution A), CAI in 10% DMSO (90% BSS) at a concentration of 4.1±0.4 μM (solution B), and CAI in 10% ethanol (90% BSS) at a concentration of 3.3±0.2 μM (solution C).
The BSS in the lower hemi-chamber was perfused at a rate of 0.03 ml/min. The perfusion apparatus was placed on a magnetic stir plate and mixing in the lower hemi-chamber was achieved using a stir bar. The upper hemi-chamber containing the test compound was covered with parafilm and sealed with silicone grease to prevent evaporation. This also provided a flexible seal so that trans-scleral pressure would not be altered. The temperature of the apparatus was maintained at 37° C. by a water jacket with circulating water bath.
A physiologic pressure of 15 mm Hg was applied across the sclera by raising the height of the outflow tube of the receptor (lower-) chamber to 22 cm. A pressure transducer that was connected to the lower hemi-chamber verified the pressure. For all three solutions that contained carboxyamido-triazole 100 μl was applied to the episcleral side and samples of perfusate were collected at the uveal side of the sclera at time zero and at 30-minute intervals for the duration of 8 hours. The scleral permeability to CAI in a 10% ethanol solution was also evaluated over a longer period of 24 hours of which samples were taken hourly. For the 24 hours experiments 500 μl of the test solution was added to the upper hemi-chamber to minimize depletion of the drug on the donor side.
From each sample obtained from the trans-scleral diffusion experiments an aliquot of 100 μl was taken and the concentrations of CAI were monitored by reverse-phase high-performance liquid chromatography (HPLC). Results were calculated on the basis of peak areas. Samples were analyzed by using a Hewlett Packard HP1100 HPLC system equipped with a UV detector, an auto-sampler, a pump, and a HP Kayak workstation that controls the operation of HPLC and analyzes the data. A Zorbak Rx-C8 column (4.6×250 mm) was used for separation and detection was set at 260 nm. The flow rate employed was 1.0 ml/min with mobile phase of 55% acetonitrile and 45% water. The injection volume was 100 μl and retention time of CAI was about 7.8 minutes.
Steady state permeability constants were calculated from the data as: Ktrans=[Rtotal/(t)(A)]×1/[D]
Where Rtotal is the amount of drug in the receiver effluent per collected fraction, and t is the fraction collection time (in seconds). A is the area of exposed sclera (in square centimeters). This value—Rtotal/(t)(A)—is equal to the flux across the tissue. D is the concentration of drug in the donor hemi-chamber. Permeability thus represents the steady state flux normalized by donor concentration. The area of exposed sclera was 0.385 cm2. Mean steady state permeability values (±SE) were calculated from four to eight experiments performed for each compound.

Series [2] relates to hyperoxia-induced ocular neovascularization. Description: Mouse pup model of hyperoxia-induced ocular neovascularization. It is filed as in vivo. The source says:
Testing of CAI in a mouse pup model of hyperoxia-induced ocular neovascularization, in which posterior retinal ischemia mediates of pathological angiogenesis, has confirmed that CAI is a potent inhibitor of ocular angiogenesis in this model.

The conditions of series [3]: cited from earlier work.
A short description of series [4]: Transmission electron microscopy of sclera after diffusion experiments. On the set-up: species or system human. The note with it: after diffusion experiments with CAI in all three test solutions. The procedure:
At the end of the trans-scleral diffusion experiments with CAI (DMSO 10%, 20%, and ethanol 10%) and 2ME2 (1% DMSO) the scleral tissue was fixed in 2.5% glutaraldehyde in 0.1 M sodium cacodylate buffer and prepared for transmission electron microscopy (TEM). The scleral tissue was bisected and postfixed in 2% osmium tetroxide for 2 hours. Small pieces of the sclera were embedded in low-viscosity epoxy medium, thin sectioned, stained with uranyl acetate and lead citrate, and viewed with a JEOL 100 CX transmission electron microscope. The micrographs were taken at X 2850.

Where [5] appears, read: mouse pup, hyperoxia-induced ocular neovascularization.

As to `NC(=O)c1nnn(Cc2cc(Cl)c(C(=O)c3ccc(Cl)cc3)c(Cl)c2)c1N` [CAI, Carboxyamido-triazole], the “diffusion across the sclera” value in series [1] is recorded as “diffused across the sclera effectively”. The “time at which semi-steady state flux was observed” value in series [1] (human, 3.3 μM) was found to be 13 h. Further, the “time to reach steady state” value in series [1] (human, 4.1 μM) came to 6 h. The “time to reach semi-steady state” value in series [1] (human, 15.2 μM) is “approximately 5 hours”. For the same compound, the Papp at 8 h, 15.2 μM in series [1] (solution A: 15.2 μM CAI in 20% DMSO (80% BSS), human sclera, 37° C., 15 mm Hg, n=4, read-out: permeability constant (mean±SE)) was 2.8 ×10⁻⁶ cm/s. Besides, the Papp at 8 h, 4.1 μM in series [1] (solution B: 4.1 μM CAI in 10% DMSO (90% BSS), human sclera, n=7, read-out: permeability constant (mean±SE)) was found to be 5.5 ×10⁻⁶ cm/s. Further, the Papp at 24 h, 3.3 μM in series [1] (solution C: 3.3 μM CAI in 10% EtOH (90% BSS), 24 hour sampling, human sclera, n=4, read-out: permeability constant (mean±SE)) was 4.16 ×10⁻⁶ cm/s. In series [2] (ischemic inner plexiform layer, mouse pup model), the “intracellular bcl-2 (immunohistochemistry)” value is listed as “up regulation of intracellular bcl-2”. Besides, in series [2] (setting [5]), the “formation of neovascular fronds” value was “nearly completely abolished formation of neovascular fronds”; the “regression of preformed neovascular fronds” value was “dramatic and significant regression of preformed neovascular fronds”. The solubility in water in series [3] was 1 to 10 µM. In addition, in series [4], the “scleral ultrastructure by TEM” value was “normal ultrastructure within the sclera”.

Values taken from patent US7276050B2, “Trans-scleral drug delivery method and apparatus” (priority 2004, dated 2007).
